This is an account of results in ChEMBL document CHEMBL1201862, “PubChem BioAssay data set” (2004).

As usually defined, the AC50 is the midpoint of the concentration-response curve, whichever way the signal moves.

Active and inactive are the calls of the source.

Test [1] is described as follows: microbe, parasite or virus in culture. Format: functional. Conditions: Mycobacterium tuberculosis.
For another test, the system named is H9c2. Description: cells. Format: functional, cell-based. As to conditions: Rattus norvegicus, H9c2, Myocardium.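 Further: confirmatory concentration-response retest of ultra-high-throughput screening hits for modulation of myocardial damage; cell death induced by hydrogen peroxide oxidative stress; compound pretreatment for 60 min then peroxide exposure for 2 h; potency is for protecting the cells against peroxide damage rather than for killing them.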
The nature of test [2]: AlphaScreen signal interference compounds, dose response, artefact control for ARNT-TACC3 interaction inhibitor project, biochemical, luminescence, cherry-pick (AID 651705).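 Further: AlphaScreen bead proximity signal that flags compounds interfering with the detection technology; potency reflects signal decrease which marks the compound as an assay artifact.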 Format: functional.
The target in another test is Large T antigen (Simian virus 40, UniProt P03070). It is filed as functional, Betapolyomavirus macacae.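 Further: Confirmatory-stage PubChem screen for compounds that inhibit SV40 T antigen.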
Sequence of Large T antigen (P03070 whole entry): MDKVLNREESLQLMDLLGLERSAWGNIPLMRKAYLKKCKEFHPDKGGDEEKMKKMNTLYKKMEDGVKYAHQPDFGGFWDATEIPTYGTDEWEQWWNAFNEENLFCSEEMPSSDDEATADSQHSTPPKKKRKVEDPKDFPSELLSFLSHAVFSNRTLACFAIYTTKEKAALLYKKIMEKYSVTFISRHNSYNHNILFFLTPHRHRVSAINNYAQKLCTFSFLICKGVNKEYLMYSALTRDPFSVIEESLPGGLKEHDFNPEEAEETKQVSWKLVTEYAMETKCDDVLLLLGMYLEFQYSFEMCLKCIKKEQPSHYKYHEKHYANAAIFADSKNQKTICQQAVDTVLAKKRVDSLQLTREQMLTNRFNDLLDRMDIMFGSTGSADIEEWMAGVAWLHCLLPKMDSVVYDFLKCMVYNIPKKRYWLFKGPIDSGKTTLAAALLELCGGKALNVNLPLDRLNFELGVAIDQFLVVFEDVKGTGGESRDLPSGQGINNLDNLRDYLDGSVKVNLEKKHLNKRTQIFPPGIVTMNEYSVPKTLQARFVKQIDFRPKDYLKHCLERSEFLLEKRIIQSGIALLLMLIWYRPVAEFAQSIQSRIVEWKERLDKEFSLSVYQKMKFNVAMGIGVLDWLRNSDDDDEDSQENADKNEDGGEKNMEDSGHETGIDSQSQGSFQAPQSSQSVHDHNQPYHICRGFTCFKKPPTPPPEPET
The nature of test [3]: inhibitors of intracellular T. cruzi replication, confirmation, NIH3T3 host cells, beta-gal luminescence (AID 2044).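 Further: intracellular parasites grown in NIH/3T3 mouse fibroblasts as host cells; luminescent beta-galactosidase reporter signal from transgenic T. cruzi replicating inside host cells; inhibitors lower the luminescence signal.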 Format: functional, cell-based.
Test [4] is described as follows: cytotoxicity toward NIH3T3 fibroblasts, dose response, counter-screen, cell-based, ATP luminescence, mouse fibroblasts (AID 2010).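 Further: cells exposed to compound for about 90 hours before reading.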 It is filed as functional. (The purpose of a counterscreen is to sort out artefacts and off-target activity.)
Test [5] concerns the target Glucose-6-phosphate 1-dehydrogenase (Homo sapiens, UniProt P11413). Kind of test: human G6PD enzyme inhibitors, dose response, selectivity assay for P. falciparum G6PD inhibitor project, biochemical, fluorescence (AID 504792). Format: functional.
The target in a further test is Nonstructural protein 1 (Influenza A virus, UniProt Q194T2). Format: functional, Influenza A virus (A/California/07/2009(H1N1)).
Sequence of Nonstructural protein 1 (Q194T2 whole entry): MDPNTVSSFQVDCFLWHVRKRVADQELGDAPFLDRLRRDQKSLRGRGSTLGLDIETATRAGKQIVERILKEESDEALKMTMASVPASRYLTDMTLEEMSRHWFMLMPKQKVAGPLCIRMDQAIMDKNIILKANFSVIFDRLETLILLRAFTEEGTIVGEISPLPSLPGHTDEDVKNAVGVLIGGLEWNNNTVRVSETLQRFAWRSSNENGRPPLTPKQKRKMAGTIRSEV
The target of test [6] is T1, Replicative DNA helicase DnaB (Mycobacterium tuberculosis, UniProt P9WMR3).
T1 sequence (P9WMR3 whole entry): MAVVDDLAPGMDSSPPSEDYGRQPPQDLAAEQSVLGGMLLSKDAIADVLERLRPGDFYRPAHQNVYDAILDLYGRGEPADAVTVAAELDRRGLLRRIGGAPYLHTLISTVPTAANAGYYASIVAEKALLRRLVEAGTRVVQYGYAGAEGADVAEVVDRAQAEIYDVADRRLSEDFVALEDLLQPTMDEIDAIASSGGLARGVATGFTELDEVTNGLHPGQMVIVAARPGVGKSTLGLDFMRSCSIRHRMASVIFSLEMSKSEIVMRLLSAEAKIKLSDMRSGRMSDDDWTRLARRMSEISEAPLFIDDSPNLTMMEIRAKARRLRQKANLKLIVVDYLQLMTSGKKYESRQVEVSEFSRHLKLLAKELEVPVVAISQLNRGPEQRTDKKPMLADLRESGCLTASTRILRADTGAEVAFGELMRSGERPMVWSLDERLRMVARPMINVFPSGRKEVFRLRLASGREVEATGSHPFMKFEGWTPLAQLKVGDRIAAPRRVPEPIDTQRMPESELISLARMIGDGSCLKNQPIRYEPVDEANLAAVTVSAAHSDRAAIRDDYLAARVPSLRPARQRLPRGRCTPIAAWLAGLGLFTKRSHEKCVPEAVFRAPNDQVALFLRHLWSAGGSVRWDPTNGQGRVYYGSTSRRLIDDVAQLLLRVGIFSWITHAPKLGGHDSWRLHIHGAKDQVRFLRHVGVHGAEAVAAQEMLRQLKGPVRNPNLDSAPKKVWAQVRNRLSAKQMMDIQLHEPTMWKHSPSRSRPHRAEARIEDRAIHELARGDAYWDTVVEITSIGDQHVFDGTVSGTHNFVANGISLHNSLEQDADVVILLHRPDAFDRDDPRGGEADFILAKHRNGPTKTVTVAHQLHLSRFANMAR
Kind of test: DnaB intein splicing inhibitors, dose response, biochemical, cell-free fluorescence (AID 449749). Format: functional.

A further test has as its target T2, Protein RecA (Mycobacterium tuberculosis, UniProt P9WHJ3).
T2 sequence (P9WHJ3 whole entry): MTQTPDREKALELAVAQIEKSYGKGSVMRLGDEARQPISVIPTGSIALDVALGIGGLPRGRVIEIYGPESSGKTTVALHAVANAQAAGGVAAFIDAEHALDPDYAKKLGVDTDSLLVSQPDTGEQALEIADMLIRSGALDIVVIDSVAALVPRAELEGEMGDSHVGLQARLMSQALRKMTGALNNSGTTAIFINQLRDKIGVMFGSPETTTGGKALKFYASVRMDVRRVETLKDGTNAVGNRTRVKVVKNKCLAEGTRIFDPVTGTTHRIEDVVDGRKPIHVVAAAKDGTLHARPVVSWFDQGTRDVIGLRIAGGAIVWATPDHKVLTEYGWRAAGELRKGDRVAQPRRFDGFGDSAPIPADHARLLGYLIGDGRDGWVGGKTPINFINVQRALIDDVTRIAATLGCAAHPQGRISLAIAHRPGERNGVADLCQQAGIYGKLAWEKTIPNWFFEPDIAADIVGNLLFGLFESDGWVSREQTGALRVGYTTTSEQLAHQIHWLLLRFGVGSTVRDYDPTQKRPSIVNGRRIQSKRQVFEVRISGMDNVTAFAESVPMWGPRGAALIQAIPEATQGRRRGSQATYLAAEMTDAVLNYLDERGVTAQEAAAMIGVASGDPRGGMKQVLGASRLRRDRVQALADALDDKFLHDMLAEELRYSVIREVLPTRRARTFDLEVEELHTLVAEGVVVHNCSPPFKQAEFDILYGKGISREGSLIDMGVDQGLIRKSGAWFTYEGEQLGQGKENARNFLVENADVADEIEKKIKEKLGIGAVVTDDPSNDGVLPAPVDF
Description: Fluorescence Cell-Free Homogeneous Dose Retest to Identify Inhibitors of RecA-Intein Splicing Activity. [Related pubchem assays (depositor defined):AID2097, AID2223, AID489010, AID492950]. Format: functional.

In the next test the test system is INS1. Kind of test: beta cell apoptosis inhibitors, cytokine rescue, dose response, luminescence, retest (AID 449756).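 Further: cell death triggered by IL-1 beta plus TNF-alpha plus IFN-gamma mixture; protective hits raise ATP signal compared with cytokine alone wells.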 It is filed as functional, cell-based. Conditions: Rattus norvegicus.
Test [7] in a line: THP-1 cell cytotoxicity, dose response, cytotoxicity control for Vif-APOBEC3G degradation inhibitor project, THP-1 cells (AID 1117359). Conditions: Human immunodeficiency virus 1, THP-1. Format: functional.
The target of test [8] is Glutathione-S-transferase (Schistosoma japonicum, UniProt Q26513). Description: biotin-GST/anti-GST TR-FRET signal inhibitors, dose response, artefact control for Vif-APOBEC3G degradation inhibitor project, biochemical (AID 1117362). It is filed as functional. A general note: TR-FRET usually uses a lanthanide donor and a delayed reading to cut background.
Sequence of Glutathione-S-transferase (Q26513 whole entry): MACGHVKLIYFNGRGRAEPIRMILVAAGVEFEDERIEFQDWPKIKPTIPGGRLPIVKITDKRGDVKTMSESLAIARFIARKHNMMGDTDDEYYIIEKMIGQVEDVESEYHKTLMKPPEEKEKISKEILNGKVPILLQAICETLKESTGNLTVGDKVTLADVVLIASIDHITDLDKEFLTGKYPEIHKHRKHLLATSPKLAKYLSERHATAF
The next test has as its target Cytochrome P450 3A4 (Homo sapiens, UniProt P08684). As to conditions: Potency.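 Further: confirmatory qHTS run detecting inhibitors and substrates of CYP3A4.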
Test [9] concerns the target Voltage-gated inwardly rectifying potassium channel KCNH2 (Homo sapiens, UniProt Q12809). Conditions: Potency.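 Further: confirmatory quantitative high-throughput screen measuring inhibition of hERG channel activity.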
Test [10] addresses Aryl hydrocarbon receptor (Homo sapiens, UniProt P35869). Conditions: Potency.
Test [11] has as its target T3, Interleukin-8 (Homo sapiens, UniProt P10145). Description: Dose Response confirmation of uHTS small molecule hits for cystic fibrosis induced NFkb Inhibitors in a TNFa-induced IL8 counterscreen. Format: functional. Conditions: read-out: IC50_Mean.
Test [12] concerns the target T3, Interleukin-8. Description: Dose Response confirmation of uHTS small molecule hits for cystic fibrosis induced NFkb Inhibitors in a PAF-induced IL8 counterscreen. Format: functional. As to conditions: read-out: IC50_Mean.
Test [13] concerns the target T4, Low molecular weight phosphotyrosine protein phosphatase (Homo sapiens, UniProt P24666).
T4 sequence (P24666 whole entry): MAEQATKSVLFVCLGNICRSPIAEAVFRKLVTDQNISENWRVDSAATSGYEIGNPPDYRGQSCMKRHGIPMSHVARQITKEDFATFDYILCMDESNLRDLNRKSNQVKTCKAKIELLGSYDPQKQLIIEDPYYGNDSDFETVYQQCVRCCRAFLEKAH
It is filed as functional. Conditions: read-out: IC50_Mean.

Test [14] has as its target T5, ATP-dependent translocase ABCB1 (Homo sapiens, UniProt P08183). Description: ABCG2 efflux pump inhibitor potency, dose response, Ig-MXP3 cells, JC-1, flow cytometry, set 2 (AID 504566).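 Further: flow cytometry median green fluorescence of retained JC-1 dye; potency of efflux pump inhibition measured as rising substrate retention.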 It is filed as functional. As to conditions: read-out: EC50_MICROM_.
Test [15] deals with T5, ATP-dependent translocase ABCB1. Kind of test: ABCB1 efflux inhibitor potency, dose response, Jurkat-DNR cells, JC-1, flow cytometry, set 2 (AID 504569).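 Further: potency of pump inhibitors that raise cellular JC-1 green fluorescence up to the nicardipine level.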 It is filed as functional. As to conditions: read-out: EC50_MICROM_. A general note: In flow cytometry, cells or beads pass a laser one at a time.
In another test the target is T6, Aminopeptidase N (Plasmodium falciparum FcB1/Columbia, UniProt O96935).
T6 sequence (O96935 whole entry): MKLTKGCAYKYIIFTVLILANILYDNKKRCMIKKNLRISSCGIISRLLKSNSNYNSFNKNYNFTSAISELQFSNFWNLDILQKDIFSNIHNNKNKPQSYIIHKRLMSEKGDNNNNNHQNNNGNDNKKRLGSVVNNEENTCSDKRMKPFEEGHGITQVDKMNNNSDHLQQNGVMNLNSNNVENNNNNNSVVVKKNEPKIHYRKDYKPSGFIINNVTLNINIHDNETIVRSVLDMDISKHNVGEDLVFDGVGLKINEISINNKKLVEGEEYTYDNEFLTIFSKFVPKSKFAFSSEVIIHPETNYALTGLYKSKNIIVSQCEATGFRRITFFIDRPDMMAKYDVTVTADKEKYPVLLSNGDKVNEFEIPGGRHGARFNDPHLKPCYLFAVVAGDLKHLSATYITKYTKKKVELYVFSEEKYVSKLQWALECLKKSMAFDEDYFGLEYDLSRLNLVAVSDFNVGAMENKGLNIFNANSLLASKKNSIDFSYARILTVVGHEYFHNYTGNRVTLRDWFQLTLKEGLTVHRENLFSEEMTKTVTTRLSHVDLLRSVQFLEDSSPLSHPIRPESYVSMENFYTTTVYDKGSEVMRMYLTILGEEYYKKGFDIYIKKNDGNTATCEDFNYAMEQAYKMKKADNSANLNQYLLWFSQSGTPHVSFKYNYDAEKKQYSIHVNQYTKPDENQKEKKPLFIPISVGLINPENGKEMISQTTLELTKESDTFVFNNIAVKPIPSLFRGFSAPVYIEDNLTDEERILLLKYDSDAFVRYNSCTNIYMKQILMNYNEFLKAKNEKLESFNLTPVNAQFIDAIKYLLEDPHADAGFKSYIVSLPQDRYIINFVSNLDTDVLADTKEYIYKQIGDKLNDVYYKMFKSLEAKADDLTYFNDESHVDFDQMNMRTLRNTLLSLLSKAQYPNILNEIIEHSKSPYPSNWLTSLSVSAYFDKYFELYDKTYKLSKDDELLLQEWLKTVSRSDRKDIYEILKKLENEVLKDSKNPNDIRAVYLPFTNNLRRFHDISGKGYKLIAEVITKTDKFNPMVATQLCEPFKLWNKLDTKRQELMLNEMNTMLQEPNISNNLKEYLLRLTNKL
Description: P. falciparum M1AAP inhibitors, biochemical, fluorogenic H-Leu-NHMec substrate, 1536-well (AID 1445). On the set-up: species or system Plasmodium falciparum 3D7, 3D7.

For test [16], the target named is Mitochondrial peptide methionine sulfoxide reductase (Bos taurus, UniProt P54149). Format: functional.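 Further: absorbance read-out, biochemical high-throughput dose-response screen for MsrA inhibitors, confirmatory; recombinant bovine MsrA coupled to E. coli TrxB with NADPH and selenocystamine; potency is for inhibitors of MsrA activity on DMSO substrate.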
Sequence of Mitochondrial peptide methionine sulfoxide reductase (P54149 whole entry): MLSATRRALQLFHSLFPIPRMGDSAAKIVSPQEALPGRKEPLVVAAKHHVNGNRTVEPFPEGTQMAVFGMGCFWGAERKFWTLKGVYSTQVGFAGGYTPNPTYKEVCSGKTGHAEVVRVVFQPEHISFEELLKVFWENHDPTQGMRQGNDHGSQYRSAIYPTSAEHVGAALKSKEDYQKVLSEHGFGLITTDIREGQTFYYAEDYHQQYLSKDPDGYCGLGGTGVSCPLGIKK

T3 sequence (P10145 whole entry): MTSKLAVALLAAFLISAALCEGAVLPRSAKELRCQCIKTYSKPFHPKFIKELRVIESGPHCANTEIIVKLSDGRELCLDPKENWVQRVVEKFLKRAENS
T5 sequence (P08183 whole entry): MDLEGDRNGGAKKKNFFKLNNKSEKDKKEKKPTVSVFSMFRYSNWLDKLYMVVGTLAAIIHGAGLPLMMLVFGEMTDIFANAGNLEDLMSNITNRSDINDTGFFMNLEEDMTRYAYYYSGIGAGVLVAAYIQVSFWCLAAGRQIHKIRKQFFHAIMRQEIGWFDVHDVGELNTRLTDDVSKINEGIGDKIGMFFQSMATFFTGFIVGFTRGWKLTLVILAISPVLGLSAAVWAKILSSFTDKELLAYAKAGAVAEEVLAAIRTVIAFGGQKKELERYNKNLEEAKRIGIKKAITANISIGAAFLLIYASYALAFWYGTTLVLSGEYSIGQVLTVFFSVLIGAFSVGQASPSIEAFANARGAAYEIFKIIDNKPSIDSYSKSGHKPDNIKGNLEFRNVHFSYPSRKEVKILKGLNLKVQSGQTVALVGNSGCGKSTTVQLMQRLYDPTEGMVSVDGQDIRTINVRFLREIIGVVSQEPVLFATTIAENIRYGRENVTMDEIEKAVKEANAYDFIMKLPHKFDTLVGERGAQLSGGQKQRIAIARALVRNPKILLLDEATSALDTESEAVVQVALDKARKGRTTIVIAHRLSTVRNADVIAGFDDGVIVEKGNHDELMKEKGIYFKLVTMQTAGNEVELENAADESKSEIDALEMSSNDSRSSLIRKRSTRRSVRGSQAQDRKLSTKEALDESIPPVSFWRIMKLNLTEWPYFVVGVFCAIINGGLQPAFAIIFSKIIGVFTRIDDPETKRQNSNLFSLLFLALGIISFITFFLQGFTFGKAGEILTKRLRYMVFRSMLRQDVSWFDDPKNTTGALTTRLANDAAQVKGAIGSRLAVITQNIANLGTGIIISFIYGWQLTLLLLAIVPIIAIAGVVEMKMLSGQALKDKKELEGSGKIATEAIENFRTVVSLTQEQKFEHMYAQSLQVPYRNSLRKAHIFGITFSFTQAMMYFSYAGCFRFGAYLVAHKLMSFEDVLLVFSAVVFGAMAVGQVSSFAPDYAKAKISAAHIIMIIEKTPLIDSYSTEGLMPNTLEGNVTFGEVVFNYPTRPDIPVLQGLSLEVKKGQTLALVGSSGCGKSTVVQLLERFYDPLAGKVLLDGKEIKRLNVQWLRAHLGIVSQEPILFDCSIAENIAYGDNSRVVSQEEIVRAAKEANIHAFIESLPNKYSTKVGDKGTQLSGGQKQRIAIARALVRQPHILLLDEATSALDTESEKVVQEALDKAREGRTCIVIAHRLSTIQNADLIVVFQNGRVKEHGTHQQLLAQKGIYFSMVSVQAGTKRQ
Sequence of Cytochrome P450 3A4 (P08684 whole entry): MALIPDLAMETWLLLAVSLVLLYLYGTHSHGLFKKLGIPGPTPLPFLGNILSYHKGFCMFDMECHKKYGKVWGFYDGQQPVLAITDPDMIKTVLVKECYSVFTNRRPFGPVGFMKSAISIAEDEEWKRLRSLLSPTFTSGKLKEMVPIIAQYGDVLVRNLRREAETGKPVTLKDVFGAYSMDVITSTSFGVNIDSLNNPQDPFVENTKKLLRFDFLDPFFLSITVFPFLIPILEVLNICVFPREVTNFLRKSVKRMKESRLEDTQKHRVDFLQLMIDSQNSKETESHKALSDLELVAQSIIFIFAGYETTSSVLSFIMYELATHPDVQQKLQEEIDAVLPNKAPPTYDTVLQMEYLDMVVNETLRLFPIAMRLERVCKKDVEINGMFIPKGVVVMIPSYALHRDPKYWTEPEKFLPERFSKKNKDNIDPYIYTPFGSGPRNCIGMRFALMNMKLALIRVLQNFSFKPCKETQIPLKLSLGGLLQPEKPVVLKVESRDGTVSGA
Sequence of Voltage-gated inwardly rectifying potassium channel KCNH2 (Q12809 whole entry): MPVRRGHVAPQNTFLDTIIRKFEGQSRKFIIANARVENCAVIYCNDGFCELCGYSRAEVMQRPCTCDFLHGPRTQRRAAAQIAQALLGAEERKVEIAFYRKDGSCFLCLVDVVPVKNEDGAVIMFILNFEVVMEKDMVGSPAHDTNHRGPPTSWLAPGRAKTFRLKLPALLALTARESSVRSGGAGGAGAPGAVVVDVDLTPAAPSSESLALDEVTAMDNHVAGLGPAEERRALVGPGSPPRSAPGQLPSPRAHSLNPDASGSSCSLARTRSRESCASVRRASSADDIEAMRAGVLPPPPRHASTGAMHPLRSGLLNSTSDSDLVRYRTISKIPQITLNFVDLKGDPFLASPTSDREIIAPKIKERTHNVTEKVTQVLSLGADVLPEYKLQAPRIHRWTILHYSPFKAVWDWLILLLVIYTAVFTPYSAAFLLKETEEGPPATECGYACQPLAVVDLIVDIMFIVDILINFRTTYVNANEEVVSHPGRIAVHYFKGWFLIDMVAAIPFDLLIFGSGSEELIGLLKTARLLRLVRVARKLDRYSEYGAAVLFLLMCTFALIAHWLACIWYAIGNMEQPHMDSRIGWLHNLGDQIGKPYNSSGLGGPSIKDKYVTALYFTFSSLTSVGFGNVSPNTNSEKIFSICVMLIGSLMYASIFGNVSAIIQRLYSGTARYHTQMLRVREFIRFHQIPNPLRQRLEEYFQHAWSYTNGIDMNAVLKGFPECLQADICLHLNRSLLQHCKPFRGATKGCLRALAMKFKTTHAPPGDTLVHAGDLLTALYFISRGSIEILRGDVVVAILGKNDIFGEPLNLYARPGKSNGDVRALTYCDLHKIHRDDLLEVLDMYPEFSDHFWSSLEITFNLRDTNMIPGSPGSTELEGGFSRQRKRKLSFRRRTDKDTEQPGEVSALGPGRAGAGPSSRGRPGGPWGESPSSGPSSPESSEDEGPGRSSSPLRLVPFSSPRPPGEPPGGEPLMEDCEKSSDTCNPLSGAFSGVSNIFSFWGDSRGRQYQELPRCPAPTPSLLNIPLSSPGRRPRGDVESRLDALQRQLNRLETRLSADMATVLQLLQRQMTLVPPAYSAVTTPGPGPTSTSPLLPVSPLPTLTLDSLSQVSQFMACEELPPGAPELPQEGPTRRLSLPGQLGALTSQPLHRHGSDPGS
Sequence of Glucose-6-phosphate 1-dehydrogenase (P11413 whole entry): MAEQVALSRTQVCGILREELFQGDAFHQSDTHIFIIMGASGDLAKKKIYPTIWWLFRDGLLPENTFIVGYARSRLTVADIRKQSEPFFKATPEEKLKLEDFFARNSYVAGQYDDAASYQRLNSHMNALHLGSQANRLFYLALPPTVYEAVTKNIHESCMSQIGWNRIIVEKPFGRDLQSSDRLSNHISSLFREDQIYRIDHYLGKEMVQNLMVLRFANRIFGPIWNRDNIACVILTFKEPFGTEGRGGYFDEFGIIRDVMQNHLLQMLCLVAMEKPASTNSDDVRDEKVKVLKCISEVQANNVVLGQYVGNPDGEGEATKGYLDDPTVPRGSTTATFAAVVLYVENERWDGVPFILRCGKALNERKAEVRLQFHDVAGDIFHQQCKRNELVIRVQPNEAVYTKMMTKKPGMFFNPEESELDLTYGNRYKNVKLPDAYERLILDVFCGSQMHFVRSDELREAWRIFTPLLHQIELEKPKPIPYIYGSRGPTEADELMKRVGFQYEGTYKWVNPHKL

For `CCc1cc(C(=O)Nc2nc(-c3ccccn3)cs2)sc1C`, in [1], the CC50 is 32 µM (active). The IC50 with H9c2 was > 79 µM (inactive). The AC50 in [2] is 103 µM (active).

As for `CC(C)Nc1ccc(Nc2ccccc2)cc1`, the IC50 on Large T antigen was 9.01 µM (active); in test [5], > 80 µM (inactive); at Nonstructural protein 1 it was 19.2 µM (active); in [8], 58 µM (active). In addition, the values for the EC50 (in [3]; in test [4]; on Protein RecA) were 2.52 µM (active), > 60 µM (not active) and 76.4 µM (active), respectively. Besides, the AC50 in test [6] was 127 µM (active); with INS1 it was 6.94 µM (active); at Cytochrome P450 3A4, 25.1 µM (inconclusive); in test [9], 15.8 µM (inconclusive); in test [10], 44.7 µM (inconclusive). Besides, in test [7], the CC50 was 26.2 µM (active).

On to `Cc1ccccc1C(=O)N1CCN(c2ccc(NC(=O)c3cccc(OC(C)C)c3)cc2)CC1`, for which the IC50 on Interleukin-8 [11] was > 79 µM (inactive); at Interleukin-8 [12], 39.6 µM (inactive).

For `C[C@@H](NC(=O)c1ncn2c1c(O)nc1ccc(Br)cc12)c1ccccc1`, the IC50 in test [13] is 25 µM (inactive).

Consider `Cc1nc2ncnn2c(N2CCN(C(=O)c3ccco3)CC2)c1Cc1ccccc1`, for which the EC50 is 2.14 µM (active) in [14] and 4.97 µM (active) in test [15].

For the compound `O=C(O)c1cc(-c2ccc(/C=N/N3C(=O)C4C5C=CC(C6CC56)C4C3=O)o2)ccc1Cl` (stereo not drawn), the IC50 at Aminopeptidase N was 90.7 µM (active); in test [16], 122 µM (inactive).
